Among the data in publication PMC12040169 (PLOS Biology, 2025) are viability values, retold here.

This series is described as follows: in vitro. Particulars: human, hela cells, % viability.

In general, viability refers to a read-out of living cells in per cent, often relative to untreated cells. Regarding `COc1cc(CNC2CCCc3c2cnn3C)cc(OC)c1` (centres unmarked) [CBK304306C], the viability at 28.5 h, 10 µM came to 82.4%.

As for `CCCCN1CC(C(=O)OCC)=C(O)C1=O` [CBK028774], the viability at 28.5 h, 10 µM came to 110%.

With `COC(=O)Cc1ccc(NC(=S)Nc2ccc(N3CCOCC3)cc2)cc1` [CBK267211], the viability at 28.5 h, 10 µM amounted to 87.4%.

Turning to `CC(=O)NCc1ccc(-c2cc(CN(C)C)n(C)n2)cc1` [CBK281667], the viability at 28.5 h, 10 µM stood at 99.1%.

As for `Cc1cc(=O)oc2cc(NC(=S)NNC(=O)C(C)Sc3nc4ccccc4s3)ccc12` (centres unmarked) [CBK267056], the viability at 28.5 h, 10 µM came to 102%.

`Cc1cccnc1NC(=O)c1cccc(C(=O)Nc2ncccc2C)c1` [CBK262184]: the viability at 28.5 h, 10 µM was determined as 88.6%.

For the compound `c1ccc(CCNc2nc(-c3cccnc3)nc3ccccc23)cc1` [CBK263672], the viability at 28.5 h, 10 µM was 105%.

For `Clc1ccc(-c2c[nH]cn2)cc1` [CBK027542], the viability at 28.5 h, 10 µM was 111%.

Take `O=C(CCCOc1ccc(Cl)cc1)n1ccn(CCc2cccs2)c1=O` [CBK106614]: the viability at 28.5 h, 10 µM is 104%.

`CN1CCN(C(=O)CCC2CCCO2)C(c2ccccc2)C1` (centres unmarked) [CBK282015]: the viability at 28.5 h, 10 µM came to 101%.

As to `Cc1nn2c(C3CCCNC3)ccnc2c1-c1ccc(F)cc1` (centres unmarked) [CBK284139], the viability at 28.5 h, 10 µM came to 78.8%.

On to `Cc1ccc2[nH]c(/C(C#N)=C\c3cn(CC(=O)Nc4ccccc4)c4ccccc34)nc2c1` [CBK267612], for which the viability at 28.5 h, 10 µM stood at 105%.

Regarding `Cc1nc2cccnc2n1C1CCN(C(=O)NCc2ccccc2)CC1` [CBK282291], the viability at 28.5 h, 10 µM came to 87.5%.

Regarding `C[C@@H](c1ccccc1)n1c(=O)[nH]c2ncc(-c3cccc(C(=O)NCCN(C)C)c3)nc21` [CBK064376], the viability at 28.5 h, 10 µM amounted to 103%.

`c1cnc(N2CCNCC2)c(OC2CCCCC2)n1` [CBK001837C]: the viability at 28.5 h, 10 µM turned out to be 92.7%.

As to `Cc1ccc(C)c(Sc2ccc(S(=O)(=O)Nc3ccc(C(=O)O)cc3)cc2)c1` [CBK297529], the viability at 28.5 h, 10 µM turned out to be 109%.

In the case of `NS(=O)(=O)c1ccc2c(c1)N(Cc1nc(-c3ccco3)no1)CC2` [CBK304291], the viability at 28.5 h, 10 µM stood at 71.9%.

In the case of `O=C(c1ccc2nccnc2c1)N1CCCc2ccccc21` [CBK200257], the viability at 28.5 h, 10 µM came out at 95.3%.

Consider `COc1cc(/C=C(\C#N)c2nc3ccccc3n2C)cc([N+](=O)[O-])c1O` [CBK263893], for which the viability at 28.5 h, 10 µM came to 91.4%.

Consider `Cc1ccnn1CCNC(=O)CCc1ccc(Cl)cc1` [CBK283182], for which the viability at 28.5 h, 10 µM is 91.1%.

For the compound `CSc1ccc(-c2nc(C)c(C(C)=O)n2O)cc1` [CBK288356], the viability at 28.5 h, 10 µM worked out at 92.5%.

For the compound `O=C(c1cn2cc(-c3cccs3)n(CC3CC3)c(=O)c2n1)N1CCCC1` [CBK306756], the viability at 28.5 h, 10 µM amounted to 92.8%.

On to `CC(=O)OC(C(=O)O)C(OC(C)=O)C(=O)O` (centres unmarked) [CBK261063], for which the viability at 28.5 h, 10 µM came out at 95.5%.

For the compound `N#Cc1ccccc1N1CCN(c2cncc(-c3cccc4cccnc34)n2)CC1` [CBK037366], the viability at 28.5 h, 10 µM worked out at 102%.

As for `O=C(CSc1nnc(-c2ccncc2)n1Cc1ccccc1)Nc1ccc(Cl)cc1` [CBK269346], the viability at 28.5 h, 10 µM amounted to 97.3%.

As for `CC(=O)c1ccc(NC(=O)Nc2nnc(CCN3CCCC3)s2)cc1` [CBK174990], the viability at 28.5 h, 10 µM is 92.6%.

`Cc1cc(C)n(C(CC(=O)c2ccccc2)C(=O)O)n1` (centres unmarked) [CBK287209]: the viability at 28.5 h, 10 µM was 90.8%.

For `COc1ccccc1-c1nn2c(Cn3nnc4ccccc43)nnc2s1` [CBK268373], the viability at 28.5 h, 10 µM amounted to 82.4%.

Take `CC(O)c1cc2n(n1)CCN(C(=O)c1csc(Cc3ccccc3)n1)C2` (centres unmarked) [CBK307437]: the viability at 28.5 h, 10 µM was determined as 98.1%.

For the compound `Clc1ccc2nc(SCc3csc(Nc4ccccc4)n3)oc2c1` [CBK268269], the viability at 28.5 h, 10 µM is 100%.

`Cn1ncc(Nc2ccccc2)c1C(=O)O` [CBK013004]: the viability at 28.5 h, 10 µM was determined as 114%.

Turning to `COc1ccc(C2(C(=O)N3CCC(c4ccncc4)CC3)CC2)cc1` [CBK285476], the viability at 28.5 h, 10 µM was determined as 111%.

On to `O=C(c1ccc2[nH]nnc2c1)N1CCc2ccccc21` [CBK200365], for which the viability at 28.5 h, 10 µM is 102%.

On to `O=C(Nc1nnc(-c2ccccc2)o1)c1ccc2ncsc2c1` [CBK287598], for which the viability at 28.5 h, 10 µM worked out at 94.4%.

In the case of `CN(C)C1Cc2cccc3nc(S(C)(=O)=O)n(c23)C1` (centres unmarked) [CBK007942], the viability at 28.5 h, 10 µM was 94.8%.

As for `COc1ccc(CNc2cc(-c3cccc(Cl)c3)nc3ccnn23)cc1` [CBK037037], the viability at 28.5 h, 10 µM came to 95.8%.

Regarding `N#Cc1ccccc1NC(=O)CSc1nc2cc(Cl)ccc2[nH]1` [CBK270019], the viability at 28.5 h, 10 µM worked out at 99.4%.

In the case of `O=c1[nH]cc([C@@H]2O[C@H](CO)[C@H](O)C2O)c(=O)[nH]1` (some centres unmarked) [CBK201172], the viability at 28.5 h, 10 µM is 103%.

With `OCc1cc(N2CCOC3(CCCOC3)C2)ncc1F` (centres unmarked) [CBK304774], the viability at 28.5 h, 10 µM was 94.7%.

With `COCC(=O)Nc1nc(OC)cnc1/C=C\c1ccccc1` [CBK145360], the viability at 28.5 h, 10 µM was 113%.

With `O=C(O)/C=C\C(=O)Nc1ccc(Cl)c(NC(=O)Cc2ccccc2)c1` [CBK263955], the viability at 28.5 h, 10 µM turned out to be 93.7%.

In the case of `CCC(=O)N1CCN(c2ccccc2NC(=O)c2ccc(C#N)cc2F)CC1` [CBK270110], the viability at 28.5 h, 10 µM is 81.8%.

In the case of `COc1ccc(OC(C)C(=O)Nc2ccc(S(N)(=O)=O)cc2)cc1` (centres unmarked) [CBK263646], the viability at 28.5 h, 10 µM came to 96%.

As to `O=C(NC(=S)Nc1cccc(Cl)c1)c1cncc(Br)c1` [CBK264618], the viability at 28.5 h, 10 µM was 94.1%.

Consider `CC(=O)CCCCC(=O)N1CCC2(CC1)CC(=O)c1cc(C)c(C)cc1O2` [CBK156497], for which the viability at 28.5 h, 10 µM turned out to be 106%.

For the compound `Cc1ccc(-c2ncc(OCc3ccccc3)nc2N)c(C)c1` [CBK145129], the viability at 28.5 h, 10 µM is 90.6%.

In the case of `CC(C)(C)OC(=O)N1CCC2(CC1)OCc1cc(-c3cccc(C(=O)O)c3)ccc1O2` [CBK107809], the viability at 28.5 h, 10 µM (bulk resorufin, single well) was determined as 87.5%.

Turning to `Cc1nc2ccc(C(=O)N3CCC(O)(c4ccccc4C)CC3)cc2[nH]1` [CBK283300], the viability at 28.5 h, 10 µM was 95.8%.

For the compound `O=C1CC2(CCN(C(=O)c3ccncc3)CC2)Oc2c(Br)cc(Br)cc21` [CBK156437], the viability at 28.5 h, 10 µM came to 95.7%.

On to `CC(C)SCC(=O)Nc1ccc(Br)cc1` [CBK057618], for which the viability at 28.5 h, 10 µM came to 102%.

For `Cc1cc(OCC(=O)Nc2ccccc2N2CCN(S(C)(=O)=O)CC2)ccc1Cl` [CBK269410], the viability at 28.5 h, 10 µM is 103%.

Turning to `COc1ccc(C(C)C)cc1-c1cn2ccnc2c(Nc2cccc(OC(F)(F)C(F)F)c2)n1` [CBK038049], the viability at 28.5 h, 10 µM was found to be 95.9%.

In the case of `Cc1cc(C[C@@H]2COC[C@H]2NCC(C)c2ccccc2)on1` (some centres unmarked) [CBK285145], the viability at 28.5 h, 10 µM is 88.5%.

Consider `Cc1oc(-c2ccccc2)cc1C(=O)Nc1ccccc1N1CCCNCC1` [CBK038940T], for which the viability at 28.5 h, 10 µM was 83.5%.

Consider `Cc1c(NC(=O)CSc2ccc(Cl)cc2)cccc1-c1nc2ncccc2o1` [CBK268829], for which the viability at 28.5 h, 10 µM is 109%.

On to `CCC1CN(c2cc(CO)c(F)cn2)CC2(CCOC2)O1` (centres unmarked) [CBK304757], for which the viability at 28.5 h, 10 µM came out at 92.9%.

Consider `CC(C)(C)C(=O)NC(c1nccs1)C1CCN(C(=O)C2CC2)CC1` (centres unmarked) [CBK284678], for which the viability at 28.5 h, 10 µM was 88.8%.

For `N#CC1=C(N)N2C(=C(C#N)C13CCN(Cc1ccccc1)CC3)Nc1ccccc12` [CBK267241], the viability at 28.5 h, 10 µM turned out to be 108%.

Turning to `CCn1nc2c(C)cc3cc(OC)ccc3n2c1=O` [CBK283823], the viability at 28.5 h, 10 µM stood at 74.6%.

Regarding `CCOc1ccc(OCCC#N)cc1` [CBK015880], the viability at 28.5 h, 10 µM was 84.7%.

Take `COc1ccc(-c2cnc(N)nc2C2CCCN(C(=O)CCCc3ccccc3)C2)cc1` (centres unmarked) [CBK286091]: the viability at 28.5 h, 10 µM worked out at 94.4%.

Regarding `Cc1ccccc1NC(=O)c1cnc2sccn2c1=O` [CBK287447], the viability at 28.5 h, 10 µM was 74.9%.

For the compound `CCN1CC2(CCN(Cc3c(F)cccc3F)CC2)c2ccccc21` [CBK136986], the viability at 28.5 h, 10 µM came out at 94%.

As to `COc1nc(N(C)C)nc(N2CC(=O)N(c3ccccc3)C2=N)n1` [CBK269079], the viability at 28.5 h, 10 µM worked out at 87.6%.

Regarding `O=[N+]([O-])c1cc2c(cc1C(Nc1ccccn1)c1cc(Cl)c3cccnc3c1O)OCO2` (centres unmarked) [CBK267795], the viability at 28.5 h, 10 µM was 83%.

Turning to `CN(C)CC1CCCCN1C(=O)[C@@H]1C[C@@H]2C=C[C@H]1C2` (some centres unmarked) [CBK282086], the viability at 28.5 h, 10 µM was 105%.

In the case of `CC(=O)Nc1ccc(C(=O)Nc2ccc(S(=O)(=O)N3CCOCC3)cc2)cc1` [CBK264763], the viability at 28.5 h, 10 µM was 95.1%.

For `CC(=O)N1CCN(C(C(=O)O)c2cn(Cc3ccccc3)c3ccc(C(=O)O)cc23)CC1` (centres unmarked) [CBK286648], the viability at 28.5 h, 10 µM came out at 79.6%.

Take `O=C(Nc1ccc(Br)cc1)C1CCCN1S(=O)(=O)c1ccc(Cl)cc1` (centres unmarked) [CBK155481]: the viability at 28.5 h, 10 µM came to 88.4%.

As to `O=C(O)CCNS(=O)(=O)c1ccc(Cl)c(Cl)c1` [CBK268815], the viability at 28.5 h, 10 µM came to 112%.

Regarding `COc1ccc(C(=O)c2c(N)c(C(=O)Nc3ccccc3)c3ccccn23)cc1` [CBK300509], the viability at 28.5 h, 10 µM was 92.6%.

Take `O=C(O)c1[nH]c2ccccc2c1NS(=O)(=O)c1cc(Cl)sc1Cl` [CBK049886]: the viability at 28.5 h, 10 µM worked out at 67.5%.

Regarding `COC(=O)C1CC2CCC1(C)CC21NC(=O)c2ccccc2N1` (centres unmarked) [CBK284440], the viability at 28.5 h, 10 µM worked out at 100%.

With `COc1ccc(CN2CCCN(C(=O)c3ccnc(Cl)c3)CC2)cc1` [CBK305364], the viability at 28.5 h, 10 µM stood at 85.4%.

Consider `CC(=O)NC[C@H]1CN(c2ccc3c(c2)CCN(C(=O)Cc2ccccc2)CC3)C(=O)O1` [CBK018499], for which the viability at 28.5 h, 10 µM came to 111%.

For the compound `Cc1cnn(C2CCCN(C(=O)CCCc3cccs3)C2)c1` (centres unmarked) [CBK304168], the viability at 28.5 h, 10 µM is 96.3%.

On to `CS(=O)(=O)N[C@H]1CO[C@H]2[C@@H]1OC[C@H]2OC(=O)Nc1cccc2ccccc12` [CBK289469], for which the viability at 28.5 h, 10 µM turned out to be 89%.

`CC(Oc1cccc(Cl)c1)n1cnnc1` (centres unmarked) [CBK022246]: the viability at 28.5 h, 10 µM was 100%.

On to `CC(Nc1cc(N2CCN(S(=O)(=O)N(C)C)CC2)ccc1[N+](=O)[O-])C12CC3CC(CC(C3)C1)C2` (centres unmarked) [CBK265479], for which the viability at 28.5 h, 10 µM came out at 115%.

Regarding `COc1ccc(CCN2CCC(Oc3cncc(OCC4COc5ccccc5O4)n3)C2)cc1OC` (centres unmarked) [CBK084389], the viability at 28.5 h, 10 µM is 112%.
